Marks after values point to notes of the source that are not given here.
Tests used:
[1] = test system: CTX-II; assay: Determination of the urinary CTX-II content (competitive ELISA, creatinine corrected); assay type: in vivo, SD rats; conditions: OVX rats, urine at 3, 5, 7 weeks, FIG. 2, vs. model group
Method: Urine samples (1˜1.5 ml) were collected in eppendorf tubes from the rats before modeling and at 3 weeks, 5 weeks and 7 weeks by using metabolic cages, and stored at −20° C.
1. The concentrations of CTX-II in the urine samples obtained in accordance with example 1 were determined by the Urine Pre-clinical (PC) Cartilaps ELISA kit and the competitive enzyme linked immunosorbent assay (ELISA). The concentration of creatinine (referred to as “Crea” hereinafter) in the urine samples were determined by the multifunctional biochemistry analyzer (Beckman coulter, DXC800). The CTX-II contents were corrected by the following formula:
Corrected CTX-II ([…])=CTX-II (μg/L)/Crea (mmol/L) […]
12) The optical densities (ODs) were determined by a microplate reader (Molecular Devices Corporation, BD03315) at 450 nm and 650 nm, and a 4-parameter logistic regression curve was thereby obtained, so as to read the concentration of each sample.
4. Determination of Crea in the urine samples (mmol/L): The Crea concentration is determined by using a multiple biochemistry analyzer (Beckman coulter, DXC800) by the Lab Department of Shanghai Ruij in Hospital.
The CTX-II baseline ratios were calculated as the above formula, and the results were shown in FIG. 2, wherein ** indicates p<0.01 vs. the model group at the same time point, and * indicates p<0.05 vs. the model group at the same time point.

[2] = test system: articular chondrocytes; assay: Apoptotic profiles of articular chondrocytes (TUNEL staining); assay type: in vivo, SD rats; conditions: OVX rats, 11 weeks; for apoptotic cells in articular cartilage, in words: FIG. 10; for Apoptotic index of the articular chondrocytes, total: whole knee joint
From the text: When a cell is undergoing apoptosis, the chromosomal DNAs are fragmented in a gradual and staged manner. The chromosomal DNAs are firstly degraded into large fragments of 50-300 kb by endogenous nucleases. Next, about 30% of the chromosomal DNAs were randomly cleaved at internucleosomal regions by the Ca^2+ and Mg^2+ dependent endonucleases to form multimers of 180˜200 bp nucleosomal DNAs. The free 3′-ends resulted from DNA double-strand break or DNA single chain gapping can be labeled by adding a derivative formed by the deoxyribonucleotide and fluorescein, peroxidase, alkaline phosphatase by the terminal deoxynucleotidyl transferase. The apoptotic cells can be detected accordingly. Such methods are generally referred to as terminal deoxynucleotidyl transferase-mediated nick end labeling.
1) Section Dewaxing: The sections were placed in an incubator at 65° C. for 3 hours, and then immersed in xylene for 5 minutes×2, in 100% ethanol for 10 min×2, in 95% ethanol for 5 min×2, in 85% ethanol for 5 minutes, in 75% ethanol for 5 minutes, and in PBS for 5 minutes×2;
2) Pre-treatment: Each of the sections was incubated with 60 μl fresh protease K (20 μg/ml) in a humidified chamber at 37° C. for 20 minutes; and then rinsed with PBS for 2 minutes×2;
3) Elimination of endogenous peroxidases: The sections were treated with 3% H2O2-methanol for 5 minutes and washed by PBS for 5 minutes×2;
4) Equilibration: Each of the sections was rinsed with 75 μl equilibration solution for 10 seconds and decanted, and the residual water was sucked off;
5) Addition of TdT enzyme: […] working solution was added to each of the sections immediately with the […] control untreated, and the sections were placed in a humidified chamber at 37° C. for 1 hour;
6) Quenching: The sections were gently shook in the quenching solution for 15 minutes, and washed by PBS for 3 minutes×3, and decanted gently;
7) Visualization: Each of the sections was incubated with 65 μl antidigoxin-perioxidase in a humidified chamber at room temperature for 30 minutes, and washed by PBS for 2 minutes×4. After incubation with sufficient amount of the perioxidase substrate (75 μl) for 3˜6 minutes, each of the sections was visualized by microscopy;
8) Counterstaining: The sections were rinsed with flowing water for 3 minutes, and subsequently stained by hematoxylin for 10 seconds, then rinsed with flowing water for 10 minutes, immersed in 95% ethanol for 10 minutes×2, immersed in 100% ethanol for 10 minutes×2; placed in xylene for 10 minutes×2; and finally mounted in neutral resin.
The average of the indices for the four regions was regarded as the total apoptotic index for the indicated knee joint, and the average of the indices obtained from two persons was regarded as the final experimental result.
The apoptotic index=number of positive cells in the field/total number of chondrocytes in the field×100%.

[3] = test system: croton oil-induced ear edema; conditions: in vivo; cited from earlier work
[4] = test system: carrageenan-induced edema; conditions: in vivo; cited from earlier work

Compound: O=c1c(-c2ccc(O[C@@H]3O[C@H](CO)[C@@H](O)[C@H](O)[C@H]3O)cc2)coc2cc(O)cc(O)c12 [HDA, 3-[4-(β-D-glucopyranosyl)-benzyl]5,7-dihydro-4H-1-benzopyran-4-one (4′,5,7-trihydroxylisoflavone-4′-D-glucoside)]
- metabolic peak of urinary CTX-II (ratio to baseline) shortly after ovariectomy ([1]; sophoricoside 40 mg/kg/day): also have this effect, but in a weaker manner
- metabolic peak of urinary CTX-II (ratio to baseline) shortly after ovariectomy ([1]; sophoricoside 80 mg/kg/day): significantly suppress the metabolic peak of CTX-II shortly after ovariectomy
- apoptotic cells in articular cartilage, in words ([2]; sophoricoside 20 mg/kg/day): The interventions other than HAD20 decreased the apoptotic chondrocytes
- apoptotic cells in articular cartilage, in words ([2]; sophoricoside 40 mg/kg/day): weaker
- apoptotic cells in articular cartilage, in words ([2]; sophoricoside 80 mg/kg/day): less than OVX group and similar to normal articular cartilage
- Apoptotic index of the articular chondrocytes, lateral femur ([2]; sophoricoside 20 mg/kg/day): 10.269 ± 1.313^□ %
- Apoptotic index of the articular chondrocytes, lateral tibia ([2]; sophoricoside 20 mg/kg/day): 12.571 ± 1.226^□□ %
- Apoptotic index of the articular chondrocytes, medial femur ([2]; sophoricoside 20 mg/kg/day): 14.779 ± 1.819^□□ %
- Apoptotic index of the articular chondrocytes, medial tibia ([2]; sophoricoside 20 mg/kg/day): 13.125 ± 1.891^□□ %
- Apoptotic index of the articular chondrocytes, lateral femur ([2]; sophoricoside 40 mg/kg/day): 7.991 ± 0.943%
- Apoptotic index of the articular chondrocytes, lateral tibia ([2]; sophoricoside 40 mg/kg/day): 7.665 ± 0.976**^□ %
- Apoptotic index of the articular chondrocytes, medial femur ([2]; sophoricoside 40 mg/kg/day): 10.779 ± 1.159%
- Apoptotic index of the articular chondrocytes, medial tibia ([2]; sophoricoside 40 mg/kg/day): 9.581 ± 0.760*^□ %
- Apoptotic index of the articular chondrocytes, lateral femur ([2]; sophoricoside 80 mg/kg/day): 5.253 ± 0.923 %
- Apoptotic index of the articular chondrocytes, lateral tibia ([2]; sophoricoside 80 mg/kg/day): 5.509 ± 0.847 %
- Apoptotic index of the articular chondrocytes, medial femur ([2]; sophoricoside 80 mg/kg/day): 7.410 ± 0.872 %
- Apoptotic index of the articular chondrocytes, medial tibia ([2]; sophoricoside 80 mg/kg/day): 6.558 ± 1.121 %
- Apoptotic index of the articular chondrocytes, total ([2]; sophoricoside 20 mg/kg/day): 12.711 ± 1.178^□□ %
- Apoptotic index of the articular chondrocytes, total ([2]; sophoricoside 40 mg/kg/day): 9.004 ± 0.588**^□ %
- Apoptotic index of the articular chondrocytes, total ([2]; sophoricoside 80 mg/kg/day): 6.183 ± 0.738 %
- croton oil-induced ear edema [3]: inhibit
- carrageenan-induced edema [4]: inhibit

Source: US20110130355A1, “USE OF SOPHORICOSIDE IN THE MANUFACTURE OF MEDICAMENTS” (priority 2008, published 2011)
